Results published in patent publication US20220002283A1 (Mylan Laboratories Limited, priority 2019, published 2022).

How the values were obtained:
[1] = Solid state stability, physical and chemical (PXRD and HPLC), overall finding; settings: 40° C./75% RH and 25° C./60% RH, three months
Experimental: (§1) The samples were analyzed by PXRD, assay and related substances by HPLC.

[2] = Solid state stability, PXRD; format: physicochemical; set-up: key: X: crystalline; S: stable
Experimental: Thus, the X-ray diffraction patterns of the co-crystals of provided herein were measured on a PANalytical X'PertPRO Powder X-ray diffractometer equipped with goniometer of θ/θ configuration and X'celerator detector. The Cu-anode X-ray tube was operated at 45 kV and 40 mA. The experiments were conducted over the 2θ range of 2.0°-50.0°, 0.030° step size and 189.865 time per step (seconds) and all the co-crystals were characterized with above mentioned method.
as §1

[3] = Solid state stability, impurities by HPLC; format: physicochemical
Experimental: A Zorbax Eclipse XDB C18 column was used with the mobile phase of methanol-acetonitrile-10 mM phosphate buffer solution at the detection wavelength of 350 nm and 260 nm. • Instrumentation: Waters HPLC system having 2695 model pump having UV/PDA detector with Empower chromatography software or its equivalent. • Chemicals: Dipotassium hydrogen phosphate, orthophosphoric acid, acetonitrile, water, sodium hydroxide, methanol. • Column: Zorbax Eclipse XDB C18 column, 250×4.6 mm, 5 μm. • Elution: Gradient. • Flow rate: 0.8 mL/min.
as §1

[4] = Solid state stability, HPLC meloxicam co-crystal assay; format: physicochemical; settings: for A %: Co-former Assay % / M %: Meloxicam Assay %: samples as per Examples 1, 2, 3
Experimental: • Instrumentation: Waters HPLC system having 2695 model pump having UV/PDA detector with Empower chromatography software or its equivalent. • Column: (A) Unison UK C18 column; (B) YMC Trait C18 EXRS Column, 250×4.6 mm, 5.0 micron; (C) Water Atlantis T3, 250×4.6 mm, 5 micron. • Mobile Phase: (A) methanol-acetonitrile-dipotassium phosphate buffer; or (B) acetonitrile-Sodium sulfate buffer solution • Detection wavelength: 210 nm and 360 nm
as §1

[5] = cited from earlier work
[6] = physchem
[7] = 25° C./60% RH, 1 mo., samples as per Example 7 or 17
[8] = 25° C./60% RH, 2 mo., samples as per Example 7 or 17
[9] = 25° C./60% RH, 3 mo., samples as per Example 7 or 17
[10] = 25° C./60% RH, Initial, samples as per Example 7 or 17
[11] = 40° C./75% RH, 1 mo., samples as per Example 7, 17 or 14
[12] = 40° C./75% RH, 2 mo., samples as per Example 7, 17 or 14
[13] = 40° C./75% RH, 3 mo., samples as per Example 7 or 17
[14] = 40° C./75% RH, Initial, samples as per Example 7, 17 or 14

Cc1cnc(NC(=O)C2=C(O)c3ccccc3S(=O)(=O)N2C)s1.Cc1cnc(NC(=O)C2=C(O)c3ccccc3S(=O)(=O)N2C)s1.O=C(O)CCC(=O)O [Meloxicam:Succinic acid (2:1)]
physical and chemical stability [1]: physically and chemically stable
PXRD [2, 7]: S
PXRD [2, 8]: S
PXRD [2, 9]: S
PXRD [2, 10]: X
PXRD [2, 11]: S
PXRD [2, 12]: S
PXRD [2, 13]: S
PXRD [2, 14]: X
Impurities (% w/w, by HPLC) Ethyl Meloxicam [3, 7]: BDL
Impurities (% w/w, by HPLC) Methyl Meloxicam [3, 7]: 0.01 % w/w
Impurities (% w/w, by HPLC) Other* (any other individual impurity) [3, 7]: 0.03 % w/w
Impurities (% w/w, by HPLC) Total [3, 7]: 0.14 % w/w
Impurities (% w/w, by HPLC) Ethyl Meloxicam [3, 8]: BDL
Impurities (% w/w, by HPLC) Methyl Meloxicam [3, 8]: BDL
Impurities (% w/w, by HPLC) Other* (any other individual impurity) [3, 8]: 0.03 % w/w
Impurities (% w/w, by HPLC) Total [3, 8]: 0.13 % w/w
Impurities (% w/w, by HPLC) Ethyl Meloxicam [3, 9]: BDL
Impurities (% w/w, by HPLC) Methyl Meloxicam [3, 9]: BDL
Impurities (% w/w, by HPLC) Other* (any other individual impurity) [3, 9]: 0.02 % w/w
Impurities (% w/w, by HPLC) Total [3, 9]: 0.13 % w/w
Impurities (% w/w, by HPLC) Ethyl Meloxicam [3, 10]: BDL
Impurities (% w/w, by HPLC) Methyl Meloxicam [3, 10]: 0.01 % w/w
Impurities (% w/w, by HPLC) Other* (any other individual impurity) [3, 10]: 0.03 % w/w
Impurities (% w/w, by HPLC) Total [3, 10]: 0.06 % w/w
Impurities (% w/w, by HPLC) Ethyl Meloxicam [3, 11]: BDL
Impurities (% w/w, by HPLC) Methyl Meloxicam [3, 11]: 0.01 % w/w
Impurities (% w/w, by HPLC) Other* (any other individual impurity) [3, 11]: 0.03 % w/w
Impurities (% w/w, by HPLC) Total [3, 11]: 0.14 % w/w
Impurities (% w/w, by HPLC) Ethyl Meloxicam [3, 12]: BDL
Impurities (% w/w, by HPLC) Methyl Meloxicam [3, 12]: BDL
Impurities (% w/w, by HPLC) Other* (any other individual impurity) [3, 12]: 0.03 % w/w
Impurities (% w/w, by HPLC) Total [3, 12]: 0.12 % w/w
Impurities (% w/w, by HPLC) Ethyl Meloxicam [3, 13]: BDL
Impurities (% w/w, by HPLC) Methyl Meloxicam [3, 13]: BDL
Impurities (% w/w, by HPLC) Other* (any other individual impurity) [3, 13]: 0.01 % w/w
Impurities (% w/w, by HPLC) Total [3, 13]: 0.08 % w/w
Impurities (% w/w, by HPLC) Ethyl Meloxicam [3, 14]: BDL
Impurities (% w/w, by HPLC) Methyl Meloxicam [3, 14]: 0.01 % w/w
Impurities (% w/w, by HPLC) Other* (any other individual impurity) [3, 14]: 0.03 % w/w
Impurities (% w/w, by HPLC) Total [3, 14]: 0.06 % w/w
Meloxicam Related Compounds A, B, C, and D by HPLC ([3]; any timepoint from initiation up to 3 months, 40° C./75% RH and 25° C./60% RH): ^#Meloxicam Related Compounds A, B, C, and D (see Table 4a) were not detectable at any timepoint from initiation up to 3 months.
Assay (% by HPLC) M % (Meloxicam Assay %) [4, 7]: 85.2%
Assay (% by HPLC) M % (Meloxicam Assay %) [4, 8]: 85.1%
Assay (% by HPLC) M % (Meloxicam Assay %) [4, 9]: 84.8%
Assay (% by HPLC) M % (Meloxicam Assay %) [4, 10]: 85.1%
Assay (% by HPLC) M % (Meloxicam Assay %) [4, 11]: 84.8%
Assay (% by HPLC) M % (Meloxicam Assay %) [4, 12]: 83.9%
Assay (% by HPLC) M % (Meloxicam Assay %) [4, 13]: 84.9%
Assay (% by HPLC) M % (Meloxicam Assay %) [4, 14]: 85.1%

O=C(O)c1ccc(O)cc1 [4-Hydroxybenzoic acid]
pKa (co-former) [5]: 4.58
pKa [6]: -0.38

O=C(O)CCC(=O)O [Succinic acid]
pKa [6]: -0.01

CC(=O)Oc1ccccc1C(=O)O.Cc1cnc(NC(=O)C2=C(O)c3ccccc3S(=O)(=O)N2C)s1 [Meloxicam:Acetylsalicylic acid (1:1)]
physical and chemical stability [1]: physically and chemically stable
PXRD ([2]; 25° C./60% RH, 1 mo., samples as per Examples 1, 2, 3): S
PXRD ([2]; 25° C./60% RH, 2 mo., samples as per Examples 1, 2, 3): S
PXRD ([2]; 25° C./60% RH, 3 mo., samples as per Examples 1, 2, 3): S
PXRD ([2]; 25° C./60% RH, Initial, samples as per Examples 1, 2, 3): X
PXRD ([2]; 40° C./75% RH, 1 mo., samples as per Examples 1, 2, 3): S
PXRD ([2]; 40° C./75% RH, 2 mo., samples as per Examples 1, 2, 3): S
PXRD ([2]; 40° C./75% RH, 3 mo., samples as per Examples 1, 2, 3): S
PXRD ([2]; 40° C./75% RH, Initial, samples as per Examples 1, 2, 3): X
A %: Co-former Assay % ([4]; 25° C./60% RH, 1 mo.): 33.4%
M %: Meloxicam Assay % ([4]; 25° C./60% RH, 1 mo.): 66.0%
A %: Co-former Assay % ([4]; 25° C./60% RH, 2 mo.): 33.0%
M %: Meloxicam Assay % ([4]; 25° C./60% RH, 2 mo.): 66.0%
A %: Co-former Assay % ([4]; 25° C./60% RH, 3 mo.): 33.0%
M %: Meloxicam Assay % ([4]; 25° C./60% RH, 3 mo.): 65.7%
A %: Co-former Assay % ([4]; 25° C./60% RH, Initial): 33.6%
M %: Meloxicam Assay % ([4]; 25° C./60% RH, Initial): 65.7%
A %: Co-former Assay % ([4]; 40° C./75% RH, 1 mo.): 33.4%
M %: Meloxicam Assay % ([4]; 40° C./75% RH, 1 mo.): 65.9%
A %: Co-former Assay % ([4]; 40° C./75% RH, 2 mo.): 32.8%
M %: Meloxicam Assay % ([4]; 40° C./75% RH, 2 mo.): 65.8%
A %: Co-former Assay % ([4]; 40° C./75% RH, 3 mo.): 33.0%
M %: Meloxicam Assay % ([4]; 40° C./75% RH, 3 mo.): 65.4%
A %: Co-former Assay % ([4]; 40° C./75% RH, Initial): 33.6%
M %: Meloxicam Assay % ([4]; 40° C./75% RH, Initial): 65.7%
